Reference: patent US5498710A, “Alkyl ether analogues of benzoporphyrin derivatives” (Health Research, Inc., priority 1994, dated 1996)
“Also recorded” adds a separate entry of the source.

What was measured:
SMT-F tumor [1] = assay: In vivo antitumor (photodynamic) activity, SMT-F tumors in DBA/2 mice; design: species or system DBA/2 Ha-DD mouse; settings: for Tumor response (nonpalpable tumor), 1-2 d / Tumor response (nonpalpable tumor), 7 d / Tumor response (nonpalpable tumor), 30 d: 1.0 mg/kg i.v., light 3 h after injection; for Tumor response (nonpalpable tumor), 1-2 d: day 1-2; for Tumor response (nonpalpable tumor), 7 d: day 7; for Tumor response (nonpalpable tumor), 30 d: day 30; for antitumor / photosensitizing activity: 1.0 mg/kg, light 3 h post i.v. injection where stated; for in vivo photosensitizing efficacy / antitumor activity compared with BPD: mice, compared with BPD (mixture of 21 and 22); for tumorcidal activity: similar doses and treatment conditions
Description: Tumor Response and Foot Response Experiments: For tumor response experiments (see Table 3), a 1mm^3 piece of SMT-F tumor from a donor DBA/2 Ha-DD mouse was implanted subcutaneously with a trocar into the axilla of a 5-7 week old female DBA/2 Ha-DD mouse. When the tumor had grown to about 4mm diameter, mice were injected intravenously (i.v.) with photosensitizers at various doses. At various time after injection, mice were restrained in Plexiglas® holders and each tumor was illuminated with 135 J/cm^2 light from a dye laser 171 (spectra physics). The light dose rate was 75 mW/cm^2 as measured with a PTR Optics […]. The percentage of short term control (non-palpable tumors) was recorded daily. For our study 6 mice/group were used.
(§1) In vivo Biological Activity: The in vivo photosensitizing ability of all the sensitizers was compared with that of commercial BPD in DBA/2 mice bearing subcutaneously implanted SMT-F tumors, a method previously described by Dougherty et al. All photosensitizers, including commercial BPD (mixture of 21 and 22) were first dissolved in a minimum quantity of Tween 80 and then diluted with 0.9% saline, to a final concentration of 1% Tween 80.
(§2) It can be seen from Table 3 that commercial BPD was quite effective at a dose of 5.0 mg/kg, 3 h post i.v. injection (4 out of six mice were tumor free at day 30). […] However, replacement of the vinyl with a 1-hexyloxyethyl group induced a remarkable difference in photosensitizing activity.

SMT-F tumor [2] = assay: as above; design: species or system DBA/2 Ha-DD mouse; settings: 5.0 mg/kg i.v., light 24 h after injection
[3] = Electronic absorption, red absorption maximum; assay type: physicochemical; settings: for red shift in the absorption spectra: electron-withdrawing groups on macrocycle; for strong absorption in the red: formyl-BPDs
Description: M.p.s were measured on a Thomas/Bristoline microscopic hot stage apparatus and were uncorrected. Silica gel 60 (70-230 and 230-400 mesh, Merck) or neutral alumina (Merck; usually Brockmann Grade III, i. e., deactivated with 6% water) were used for column chromatography. Preparative thin layer chromatography was carried out on 20×20 cm glass plates coated with Merck G 254 silica gel (1 mm thick). Analytical thin layer chromatography (TLC) was performed using merck 60 F254 silica gel (precoated sheets, 0.2 mm thick). Reactions were monitored by TLC and spectrophotometry and were carried out under nitrogen and in the dark. ^1 HNMR spectra were obtained in deuteriochloroform solution at 300 MHz using a General Electric QE300 spectrometer; chemical shifts are expressed in ppm relative to chloroform (7.258 ppm). Elemental analyses were performed at the Midwest Microlab, Ltd., Indiana, USA. Unless stated otherwise, electronic absorption spectra were measured in dichloromethane solution using a Hewlett-Packard 8450A spectrophotometer. Mass spectra were obtained at the Mass Spectrometry Facility, University of California, San Francisco and at the Department of Biophysics, Roswell Park Cancer Institute, Buffalo.

[4] = Solubility of photosensitizers; assay type: physicochemical; settings: Tween 80, then 0.9% saline (1% Tween 80)
Source text: as §1, §2

Row | Molecule | antitumor / photosensitizing activity (SMT-F tumor [1]) | in vivo photosensitizing efficacy / antitumor activity compared with BPD (SMT-F tumor [1]) | tumorcidal activity (SMT-F tumor [1]) | further results
1 | 3-(1-Hexyloxyethyl)benzoporphyrin Derivative [Compound 35] | active; also recorded: good antitumor activity | significantly more active than the industrially prepared benzoporphyrin derivative; also recorded: better photosensitizing efficacy than benzoporphyrin derivative monocarboxylic acid; also recorded: better anti-tumor activity than BPD-MA |  | Tumor response (nonpalpable tumor), 1-2 d (SMT-F tumor [1]): 6/6; Tumor response (nonpalpable tumor), 7 d (SMT-F tumor [1]): 6/6; Tumor response (nonpalpable tumor), 30 d (SMT-F tumor [1]): 2/6
2 | 3-(1-Hexyloxyethyl)benzoporphyrin Derivative [Compound 45] | active | significantly more active than the industrially prepared benzoporphyrin derivative; also recorded: better photosensitizing efficacy than benzoporphyrin derivative monocarboxylic acid; also recorded: better anti-tumor activity than BPD-MA |  | Tumor response (nonpalpable tumor), 1-2 d (SMT-F tumor [1]): 6/6; Tumor response (nonpalpable tumor), 7 d (SMT-F tumor [1]): 4/6; Tumor response (nonpalpable tumor), 30 d (SMT-F tumor [1]): 0/6; Tumor response (nonpalpable tumor), 1-2 d (SMT-F tumor [2]; day 1-2): 6/6; Tumor response (nonpalpable tumor), 7 d (SMT-F tumor [2]; day 7): 6/6; Tumor response (nonpalpable tumor), 30 d (SMT-F tumor [2]; day 30): 0/6
3 | CCCCCCOC(C)C1=C(C)c2cc3[nH]c(cc4nc(cc5[nH]c(cc1n2)c(C)c5CCC(=O)OC)C(CCC(=O)OC)=C4C)C1(C)C3=CC=C(C(=O)OC)C1C(=O)OC (mixture of isomers) [Compound 27, 8-(1-Hexyloxyethyl)benzoporphyrin Derivative] | active; also recorded: good antitumor activity | significantly more active than the industrially prepared benzoporphyrin derivative; also recorded: better photosensitizing efficacy than benzoporphyrin derivative monocarboxylic acid; also recorded: better anti-tumor activity than BPD-MA |  | Tumor response (nonpalpable tumor), 1-2 d (SMT-F tumor [1]): 6/6; Tumor response (nonpalpable tumor), 7 d (SMT-F tumor [1]): 4/6; Tumor response (nonpalpable tumor), 30 d (SMT-F tumor [1]): 1/6; absorption maximum wavelength ([3]; maximum red absorption peak, Table 3): 676 nm
4 | COC(=O)CCC1=C(C)c2cc3[nH]c(cc4nc(cc5[nH]c(cc1n2)c(CCC(=O)OC)c5C)C(C=CC(C)C1=C(C)c2cc5[nH]c(cc6nc(cc7[nH]c(cc1n2)c(C)c7CCC(=O)OC)C(CCC(=O)OC)=C6C)C1(C)C5=CC=C(C(=O)OC)C1C(=O)OC)=C4C)C1=CC=C(C(=O)OC)C(C(=O)OC)C13C (mixture of isomers) [Compound 46, Bis-Benzoporphyrin] |  |  | did not show any significant tumorcidal activity | 
5 | C=CC1=C(C)c2cc3[nH]c(cc4nc(cc5[nH]c(cc1n2)c(C)c5CCC(=O)OC)C(CCC(=O)OC)=C4C)C1(C)C3=CC=C(C(=O)OC)C1C(=O)OC (stereo not drawn) [Compound 20, 8-vinylbenzoporphyrin Derivative] | activity similar to BPD |  |  | 
6 | COC(=O)CCC1=C(C)c2cc3[nH]c(cc4nc(cc5[nH]c(cc1n2)c(CCC(=O)OC)c5C)C(C(C)=O)=C4C)C1=CC=C(C(=O)OC)C(C(=O)OC)C13C (stereo not drawn) [Compound 23, 8-Acetylbenzoporphyrin Derivative] | inactive | failed to improve their photosensitizing efficacy | did not show any significant tumorcidal activity | red shift in the absorption spectra [3]: significant red shift in the absorption spectra; ease of dissolution [4]: difficult to dissolve
7 | CCC1=C(C)c2cc3[nH]c(cc4nc(cc5[nH]c(cc1n2)c(C)c5CCC(=O)OC)C(CCC(=O)OC)=C4C)C1(C)C3=CC=C(C(=O)OC)C1C(=O)OC (stereo not drawn) [Compound 25, 8-Ethylbenzoporphyrin Derivative] |  |  | did not show any significant tumorcidal activity | 
8 | COC(=O)CCC1=C(C)c2cc3[nH]c(cc4nc(cc5[nH]c(cc1n2)c(CCC(=O)OC)c5C)C(C=O)=C4C)C1=CC=C(C(=O)OC)C(C(=O)OC)C13C (stereo not drawn) [Compound 26, 8-Formylbenzoporphyrin Derivative] |  |  | did not show any significant tumorcidal activity | strong absorption in the red [3]: 696 nm
9 | C=CC1=C(C)c2cc3[nH]c(cc4nc(cc5[nH]c(cc1n2)C1(C)C5=CC=C(C(=O)OC)C1C(=O)OC)C(C)=C4CCC(=O)OC)c(CCC(=O)OC)c3C (stereo not drawn) [Compound 28, 3-Vinylbenzoporphyrin Derivative] | activity similar to BPD |  |  | 
10 | COC(=O)CCC1=C(C)c2cc3[nH]c(cc4nc(cc5[nH]c(cc1n2)c(CCC(=O)OC)c5C)C(C)=C4C(C)=O)C1(C)C3=CC=C(C(=O)OC)C1C(=O)OC (stereo not drawn) [Compound 31, 3 -Acetylbenzoporphyrin Derivative] | inactive | failed to improve their photosensitizing efficacy | did not show any significant tumorcidal activity | red shift in the absorption spectra [3]: significant red shift in the absorption spectra; ease of dissolution [4]: difficult to dissolve
11 | CCC1=C(C)c2cc3[nH]c(cc4nc(cc5[nH]c(cc1n2)C1(C)C5=CC=C(C(=O)OC)C1C(=O)OC)C(C)=C4CCC(=O)OC)c(CCC(=O)OC)c3C (stereo not drawn) [Compound 33, 2-Ethylbenzoporphyrin Derivative] |  |  | did not show any significant tumorcidal activity | 
12 | COC(=O)CCC1=C(C)c2cc3[nH]c(cc4nc(cc5[nH]c(cc1n2)c(CCC(=O)OC)c5C)C(C)=C4C=O)C1(C)C3=CC=C(C(=O)OC)C1C(=O)OC (stereo not drawn) [Compound 34, 3-Formylbenzoporphyrin Derivative] |  |  | did not show any significant tumorcidal activity | strong absorption in the red [3]: 696 nm
13 | C=CC1=C(C)c2cc3[nH]c(cc4nc(cc5[nH]c(cc1n2)c(C)c5CCC(=O)OC)C(CCC(=O)OC)=C4C)C1(C)C3=CC=C(C(=O)OC)C1C(=O)OC (stereo not drawn) [Compound 36, 8-Vinylbenzoporphyrin Derivative] | activity similar to BPD |  |  | 
14 | COC(=O)CCC1=C(C)c2cc3[nH]c(cc4nc(cc5[nH]c(cc1n2)c(CCC(=O)OC)c5C)C(C(C)=O)=C4C)C1=CC=C(C(=O)OC)C(C(=O)OC)C13C (stereo not drawn) [Compound 37, 8-Acetylbenzoporphyrin Derivative] | inactive | failed to improve their photosensitizing efficacy |  | red shift in the absorption spectra [3]: significant red shift in the absorption spectra; ease of dissolution [4]: difficult to dissolve
15 | C=CC1=C(C)c2cc3[nH]c(cc4nc(cc5[nH]c(cc1n2)C1(C)C5=CC=C(C(=O)OC)C1C(=O)OC)C(C)=C4CCC(=O)OC)c(CCC(=O)OC)c3C (stereo not drawn) [Compound 41, 3-Vinyl-BPD] | activity similar to BPD |  |  | 
16 | COC(=O)CCC1=C(C)c2cc3[nH]c(cc4nc(cc5[nH]c(cc1n2)c(CCC(=O)OC)c5C)C(C)=C4C(C)=O)C1(C)C3=CC=C(C(=O)OC)C1C(=O)OC (stereo not drawn) [Compound 42, 3 -Acetylbenzoporphyrin Derivative] | inactive | failed to improve their photosensitizing efficacy |  | red shift in the absorption spectra [3]: significant red shift in the absorption spectra; ease of dissolution [4]: difficult to dissolve
